Calls of active or inactive are those of the source. The rule behind the calls is not given here.
What was measured:
P2X purinoceptor 7 [1] = target: T1, P2X purinoceptor 7 (Homo sapiens, UniProt Q99572); assay: Antagonist activity at human P2X7 receptor ethidium bromide release assay; type: functional
T1 sequence (Q99572 whole entry): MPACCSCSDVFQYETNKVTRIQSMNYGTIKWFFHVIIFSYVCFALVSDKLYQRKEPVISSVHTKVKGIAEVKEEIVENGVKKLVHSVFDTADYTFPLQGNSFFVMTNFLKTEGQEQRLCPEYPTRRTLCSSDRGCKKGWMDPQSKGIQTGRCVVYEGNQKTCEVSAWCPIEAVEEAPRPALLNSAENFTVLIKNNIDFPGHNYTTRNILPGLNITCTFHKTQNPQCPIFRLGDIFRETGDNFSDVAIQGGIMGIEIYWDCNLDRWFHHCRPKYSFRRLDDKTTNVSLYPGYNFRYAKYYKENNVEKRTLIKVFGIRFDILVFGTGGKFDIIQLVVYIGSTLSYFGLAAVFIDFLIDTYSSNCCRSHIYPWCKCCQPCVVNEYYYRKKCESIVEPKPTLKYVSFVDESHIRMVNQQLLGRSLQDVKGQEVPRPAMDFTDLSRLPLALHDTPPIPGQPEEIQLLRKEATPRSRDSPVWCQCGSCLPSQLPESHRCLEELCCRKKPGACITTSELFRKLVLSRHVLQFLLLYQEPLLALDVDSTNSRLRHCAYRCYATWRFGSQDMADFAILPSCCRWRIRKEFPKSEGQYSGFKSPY

Rattus norvegicus [2] = assay: Antihyperalgesic activity against complete Freund's adjuvant-induced hypersensitivity in po dosed rat inflammatory pain model after 1.5 hrs; type: functional
[3] = Volume of distribution at steady state in rat at 1 mg/kg, iv; type: ADME, organism-based; design: dose 1 mg/kg, route intravenous; conditions: in vivo, read-out: Vdss
Rattus norvegicus [4] = assay: Reversal of complete Freund's adjuvant-induced hypersensitivity in rat chronic knee joint pain model at 5-50 mg/kg, po administered 13 days after complete Freund's adjuvant challenge bid for 4 days measured on day 15; type: functional, organism-based
Blood = assay: Drug level in rat blood at 10 mg/kg, po; type: ADME, organism-based; design: dose 10 mg/kg, route oral; conditions: in vivo, read-out: Drug uptake
Brain = assay: Drug level in rat brain at 10 mg/kg, po; type: ADME, organism-based; design: dose 10 mg/kg, route oral; conditions: in vivo, read-out: Drug uptake
[5] = Blood clearance in rat at 1 mg/kg, iv; type: ADME, organism-based; design: dose 1 mg/kg, route intravenous; conditions: whole blood
P2X purinoceptor 7 [6] = target: T2, P2X purinoceptor 7 (Rattus norvegicus, UniProt Q64663); assay: Antagonist activity at rat P2X7 receptor ethidium bromide release assay; type: functional
T2 sequence (Q64663 whole entry): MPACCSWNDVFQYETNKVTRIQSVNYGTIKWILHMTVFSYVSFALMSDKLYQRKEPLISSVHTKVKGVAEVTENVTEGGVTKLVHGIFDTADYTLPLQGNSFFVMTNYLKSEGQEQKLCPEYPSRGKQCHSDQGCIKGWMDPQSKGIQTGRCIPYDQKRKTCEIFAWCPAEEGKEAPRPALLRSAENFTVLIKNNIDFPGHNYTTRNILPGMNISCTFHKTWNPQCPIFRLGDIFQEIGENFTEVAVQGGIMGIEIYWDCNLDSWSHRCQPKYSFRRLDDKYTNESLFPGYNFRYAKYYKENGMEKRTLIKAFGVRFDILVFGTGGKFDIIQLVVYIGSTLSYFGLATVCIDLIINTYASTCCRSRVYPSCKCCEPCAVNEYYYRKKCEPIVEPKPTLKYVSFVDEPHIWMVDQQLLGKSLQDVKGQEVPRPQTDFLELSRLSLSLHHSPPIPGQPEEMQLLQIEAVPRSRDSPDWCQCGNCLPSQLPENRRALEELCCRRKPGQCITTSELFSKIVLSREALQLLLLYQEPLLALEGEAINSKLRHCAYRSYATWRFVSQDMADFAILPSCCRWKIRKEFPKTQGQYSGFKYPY

[7] = Oral bioavailability in rat at 3 mg/kg; type: ADME, organism-based; conditions: in vivo, read-out: Activity
[8] = Excretion half life in rat at 1 mg/kg, iv; type: ADME, organism-based; design: dose 1 mg/kg, route intravenous; conditions: in vivo, read-out: beta t1/2 (converted)
Rattus norvegicus [9] = assay: Antihyperalgesic activity against complete Freund's adjuvant-induced hypersensitivity in rat inflammatory pain model at 10 mg/kg, po after 1.5 hrs; type: functional, organism-based; design: dose 10 mg/kg
Rattus norvegicus [10] = assay: Reversal of complete Freund's adjuvant-induced hypersensitivity in rat chronic knee joint pain model at 5-50 mg/kg, po administered 13 days after complete Freund's adjuvant challenge bid for 4 days measured on day 14; type: functional, organism-based

| SMILES | IC50 (P2X purinoceptor 7 [1]) [nM] | other results |
| --- | --- | --- |
| Cc1n[nH]c(C)c1CC(=O)NCc1cccc(Cl)c1 | 158 | – |
| Cc1noc(C)c1CC(=O)NCc1cccc(C(F)(F)F)c1Cl | 2.51 | – |
| Cc1[nH]nc(CC(C)C)c1CCC(=O)NCc1ccc(F)cc1Cl | 100 | – |
| Cc1n[nH]c(C)c1CC(=O)NCc1ccc(Cl)cc1 | 631 | – |
| Cc1cn[nH]c1CCC(=O)NCc1ccc(F)cc1Cl | 398 | – |
| Cc1cnn(C)c1CC(=O)NCc1ccc(Cl)cc1Cl | 10 | – |
| Cc1n[nH]c(C)c1CC(=O)NCc1ccc(F)cc1C(F)(F)F | 39.8 | – |
| Cc1n[nH]c(C)c1CC(=O)NCc1ccc(Cl)c(C(F)(F)F)c1 | 63.1 | – |
| Cn1ncc(F)c1CC(=O)NCc1cccc(C(F)(F)F)c1Cl | 10 | – |
| Cc1[nH]nc(C(F)(F)F)c1CCC(=O)NCc1ccc(F)cc1Cl | 12.6 | – |

Now from value to compound, other results behind:

| IC50 (P2X purinoceptor 7 [1]) [nM] | SMILES | other results |
| --- | --- | --- |
| 158 | Cc1cnn(C)c1CCC(=O)NCc1ccc(F)cc1Cl | – |
| 3.16 | Cc1cnn(C)c1CC(=O)NCc1cccc(C(F)(F)F)c1Cl | – |
| 126 | CC(C)c1n[nH]c(C(C)C)c1CCC(=O)NCc1ccc(F)cc1Cl | – |
| 2.51 | Cc1n[nH]c(C)c1CC(=O)NCc1cccc(C(F)(F)F)c1Cl | – |
| 7.94 | Cc1n[nH]c(C)c1CC(=O)NCc1ccc(Cl)cc1Cl | ED50 (Rattus norvegicus [2]): 2.5 mg/kg; Vd [3]: 1 L/kg; Activity (Rattus norvegicus [4]): Active; concentration (Blood): 20.9 µM; concentration (Brain): 4.9 µM; clearance [5]: 9 mL/min/kg; IC50 (P2X purinoceptor 7 [6]): 79.4 nM; bioavailability [7]: 100%; half-life [8]: 1.7 h; Activity (Rattus norvegicus [9]): Active; Activity (Rattus norvegicus [10]): Active |
| 158 | Cc1[nH]nc(C(C)(C)C)c1CCC(=O)NCc1ccc(F)cc1Cl | – |
| 316 | Cc1cc(CCC(=O)NCc2ccc(F)cc2Cl)n(C)n1 | – |
| > 1000 | Cc1[nH]nc(-c2ccccc2)c1CCC(=O)NCc1ccc(F)cc1Cl | – |
| 251 | Cc1n[nH]c(C)c1CC(=O)NCc1ccccc1Cl | – |
| 158 | Cc1n[nH]c(C)c1CC(=O)NCc1ccc(F)cc1F | – |
| 63.1 | Cc1noc(C)c1CCC(=O)NCc1ccc(F)cc1Cl | – |
| 15.8 | Cc1noc(C)c1CC(=O)NCc1ccc(Cl)cc1Cl | – |
| 10 | CCc1n[nH]c(CC)c1CCC(=O)NCc1ccc(F)cc1Cl | – |

Source: ChEMBL document CHEMBL1208703, “Structure-activity relationships and in vivo activity of (1H-pyrazol-4-yl)acetamide antagonists of the P2X(7) receptor” (Bioorg Med Chem Lett, 2010)
